Series [1] relates to ES-2 ovarian cancer cells. Description: MTS cytotoxicity and combination index, ES2. The series is classed as cell-based. The conditions noted are these: 72 h. The procedure: (§1) In vitro synergistic cytotoxicity: The cytotoxicity of blank micelles and drug-loaded micelle were assessed by measuring the cell viability using the standard MTS assay. SKOV-3 ovarian cancer cells and ES-2 ovarian cancer cells were seeded in 96-well plates at 4×10^3 cells per well in 100 μL of McCoy's 5A with L-glutamine containing 10% fetal bovine serum, supplemented with 50 U/mL penicillin and 50 U/mL streptomycin, and incubated at 37° C. in 5% CO2 atmosphere for 24 h. Different concentrations of the empty micelle solutions and drug-loaded micelles were added into the cell medium. After 72 h incubation, Cell Titer 96® Aqueous Cell Proliferation Reagent, which is composed of MTS and an electron coupling reagent PMS, was added to each well according to the manufacturer's instructions. The cell viability was determined by measuring the absorbance at 490 nm using a micro-plate reader. […]
(§2) The effective method to evaluate synergistic drug combinations in vitro is median-effect analysis, as originally proposed by Chou and Talalay (Chou T C. Theoretical basis, experimental design, and computerized simulation of synergism and antagonism in drug combination studies. Pharmacol Rev. 2006; 58:621-81. Chou T C, Talalay P. Quantitative analysis of dose-effect relationships: the combined effects of multiple drugs or enzyme inhibitors. Adv Enzyme Regul. 1984; 22:27-55.). […]

Series [2] can be described thus: Tissue biodistribution of Pt by ICP-MS. In kind it is in vivo, nude mice. Conditions: 48 h post-injection. The procedure: Free CDDP and TM (CDDP/PTX=2:1) were injected into nude mice via tail vein at a single equivalent dose of CDDP 6 mg/kg. At 48 h post-injection, major organs (heart, liver, spleen, lung and kidney) and tumor tissues were harvested from the mice. The organs were weighed and dissolved in the concentrated nitric acid by heating up (70° C.) and evaporated to dryness, and then re-dissolved in 0.1N HCl for tissue biodistribution of Pt analysis by ICP-MS.

For series [3], the system named is SKOV-3 ovarian cancer cells. Description: MTS cytotoxicity and combination index, SKOV-3. The series is classed as cell-based, human. Conditions: 72 h. As to the method:
as §1, §2

Another series has as its system Hela cells. As to the kind of experiment: MTS cytotoxicity and combination index, Hela. The series is classed as cell-based. The conditions noted are these: 72 h.
Series [4] deals with SKOV-3 ovarian cancer xenografts. Description: In vivo anticancer efficacy.
Method: Xenograft Mouse Models. Female athymic nude mice (Nu/Nu strain), 5-6 weeks age, were purchased from Harlan (Livermore, Calif.). All animals were kept under pathogen-free conditions according to AAALAC (Association for Assessment and Accreditation of Laboratory Animal Care) guidelines and were allowed to acclimatize for at least 4 days prior to any experiments. All animal experiments were performed in compliance with institutional guidelines and according to protocol approved by the Animal Use and Care Administrative Advisory Committee. SKOV-3 ovarian cancer cells (7×10^6) in a 100/IL of mixture of PBS and Matrigel (1:1 v/v) without fetal bovine serum (FBS) were injected subcutaneously into the flanks of nude mice to form nodules.
In vivo anticancer efficacy. Nude mice bearing human SKOV3 ovarian cancer tumor (approximately 150 mm^3) were randomly divided into 6 groups (n=5), including control (PBS only), free CDDP (4 mg/kg CDDP), TM(PTX) (3 mg/kg PTX), PEG(CDDP) (4 mg/kg CDDP), TM(CDDP) (6 mg/kg CDDP), and TM(CDDP/PTX=2:1) (6 mg/kg CDDP, 3 mg/kg PTX). Treatments were administered 3 times totally via tail vein on day 0, 4 and 8. Animal body weight and tumor volume were monitored every second day. Seven days after the last treatment, about 100 μL of blood was collected via tail bleeding for blood counts. The tumor sizes were measured with electronic calipers, and calculated using the following formula: V=(shortest diameter^2×longest diameter)/2.
Series [5] can be described thus: Pharmacokinetics of platinum in plasma after i.v. injection. In kind it is in vivo, mice. As to the method:
Pharmacokinetics and biodistribution. The blood pharmacokinetics study were performed using female SPF BALB/c mice, which were purchased from Charles River Laboratories Inc. Nanocarriers were administered into mice via tail vein injection with free drug mixture of CDDP/PTX or co-loading TM (CDDP/PTX=2:1) solution at a single equivalent dose of CDDP/PTX 6/3 mg/kg via tail vein. At defined time points (5 min, 0.5 h, 1 h, 2 h, 4 h, 8 h, 24 h and 48 h), blood samples were collected into heparinized tubes and immediately centrifuged at 1,000 rpm for 15 min to obtain plasma. Plasma samples were dissolved on heat in nitric acid and the platinum contents were measured by ICP-MS. The percentage of injected dose in plasma was calculated considering plasma volume in mice to be 45.6 mL/kg. (King F G, Dedrick R L. Physiological pharmacokinetic parameters for cis-dichlorodiammineplatinum(II) (DDP) in the mouse. J Pharmacokinet Biopharm. 1992; 20:95-9.)

The conditions of series [6]: cancer treatment in mouse models; cited from earlier work.
Series [7] concerns wide variety of cancer cells in culture. Conditions: cited from earlier work.
The conditions of series [8]: in vivo; cited from earlier work.
Series [9] is described as follows: DOX release, dialysis against PBS. In kind it is physicochemical. Conditions: dialysis against PBS at 37° C. The procedure: DOX Release. 1 mL of DOX-PEG^5KCHA4-L-Rh4 (1.5:15.0) solution was distributed into three dialysis tube and dialyzed against 50 ml PBS at 37° C., respectively, in comparison with free DOX. The samples were placed in conical tubes filled with PBS, which was refreshed at the time of UV-Vis measuring at 550 nm (FIG. 13). The free DOX was completely released by 10 hours but the loaded DOX remained encapsulated at around 50% by the time the study was finished at 96 hours. This indicates the high DOX binding affinity within PEG^5KCHA4-L-Rh4 micelles and a sustained DOX release would reduce in vivo toxicity of payload drug and increase tumor targeting effects via the prolonged circulating to take EPR effects.

In another series the test system is SKOV-3 tumor xenograft. As to the kind of experiment: NIRF optical animal imaging, in vivo and ex vivo. Details: species or system nude mice. The conditions noted are these: in vivo whole body imaging. As to the method: DiD (a hydrophobic near-infrared (NIR) cyanine dye) was encapsulated in each nanocarrier (together with PTX and CDDP) at a ratio of 2:1:0.1 (CDDP/PTX/DiD by weight) using the same method as described above. The particle size was measured by DLS analysis. 100 μL of TM(DiD-PTX-CDDP) solution was filtered with a 0.22 μm filter to sterilize solution before injection. At the same time, same amount of DiD in DMSO solution was diluted with PBS right before I.V. injection. The fluorescent DiD co-loaded TM with equivalent dose of 6 mg/kg CDDP were injected into nude mice bearing SKOV-3 tumor xenograft via tail vein. Mice were anesthetized via isoflurane and optically imaged at different time points (1 h, 2 h, 4 h, 8 h, 24 h, 48 h and 72 h) using an IVIS 200 (PerkinElmer) with the (excitation/emission 625/700 nm). At the end of the experiments, the animals were sacrificed and all the major organs as well as tumors were excised for ex vivo imaging to determine the in vivo biodistribution of nanoparticles. The associated fluorescence intensities were determined by Living Image software (Caliper Life Sciences) using operator-defined regions of interest (ROI) measurements.

The mark [10] stands for this setting: first figure of co-loaded cells.
Setting [11] is: platinum in plasma, i.v., two compartment model.

The source of these data is patent US10463694B2, “Functional segregated telodendrimers and nanocarriers and methods of making and using same” (The Research Foundation for the State University of New York, priority 2014, dated 2019).

Molecules are shown by their SMILES. “And” between values parts separate entries of the source, which are not always exact repeats. Equal entries are not always repeated.

As for `[NH2][Pt]([NH2])([Cl])[Cl]` [CDDP, Cisplatin], the “ES2 IC50, CDDP concentration” value in series [1] (setting [10]) worked out at 0.92 µg/mL. For the same molecule, in [2], the “kidney/tumor ratio of Pt concentrations” value turned out to be 4 and the “liver/tumor ratio of Pt concentrations” value came to 2. In [3] (first figure of co-loaded cells (CDDP/PTX)), the “SKOV-3 IC50, CDDP concentration” value came out at 1.354 µg/mL. In the series with Hela cells (setting [10]), the “Hela IC50, CDDP concentration” value is 2.427 µg/mL. Moreover, in series [4] (4 mg/kg CDDP), the medium survival time was determined as 15 days. The body weight loss result in [4] (4 mg/kg CDDP on days 0, 4, 8, day 12) is reported as “exceeded 20%”. In [4] (4 mg/kg CDDP, deaths on day 12, 13, 15, 16 and 17), the mortality entry is listed as “died”. The “WBC count versus PBS control” value in series [4] (day 7 after the last injection, 4 mg/kg CDDP) was “significantly decreased”. Moreover, the “Pt of the injected dose in plasma” value in series [5] (30 min after injection) was 5%. Besides, the “Pt of the injected dose in plasma” value in [5] (24 h post injection) is recorded as “less than 1%”. In series [5] (platinum in plasma, 5 min post iv injection), the Cmax – broadly, the peak of the concentration-time curve – was 27600 ng/mL and 27580 ng/mL. Moreover, in series [5] (platinum in plasma, i.v.), the AUC (in general, the area under the concentration-time curve, a measure of exposure) was determined as 30800 ng·h/mL; the CL worked out at 2.1645 mL/min/kg; the CL2 amounted to 9.3217 mL/min/kg; the Vss (commonly a proportionality between amount in the body and measured concentration, not a real space) turned out to be 0.6681 L/kg. In series [5] (setting [11]), this molecule showed a t1/2α of 2.64 min and a t1/2β of 258 min. The “maximum tolerated dose (MTD)” value in [6] is at most 4 mg/kg.
As to `CC(=O)O[C@H]1C(=O)[C@@]2(C)[C@H]([C@H](OC(=O)c3ccccc3)[C@]3(O)C[C@H](OC(=O)[C@H](O)[C@@H](NC(=O)c4ccccc4)c4ccccc4)C(C)=C1C3(C)C)[C@]1(OC(C)=O)CO[C@@H]1C[C@@H]2O` [PTX, paclitaxel], in [7], the “potency relative to CDDP (IC50s: low nM vs low μM)” value is reported as about 1000 times. Further, in series [8], the t1/2 in human was 20.4 min. Further, the IC50 worked out at 0.055 µg/mL in series [1] (second figure of co-loaded cells, read-out: ES2 IC50, PTX concentration); 0.032 µg/mL in series [3] (Homo sapiens, SK-OV-3, second figure of co-loaded cells (CDDP/PTX), read-out: SKOV-3 IC50, PTX concentration); 0.02 µg/mL with Hela cells (Homo sapiens, HeLa, second figure of co-loaded cells, read-out: Hela IC50, PTX concentration).
Take `COc1cccc2c1C(=O)c1c(O)c3c(c(O)c1C2=O)C[C@@](O)(C(=O)CO)C[C@@H]3O[C@H]1C[C@H](N)[C@H](O)[C@H](C)O1` [free DOX, Doxorubicin]: the “time to complete DOX release” value in series [9] is at most 10 h.
As to `CCCCCCCCCCCCCCCCCCN1C(=CC=CC=CC2=[N+](CCCCCCCCCCCCCCCCCC)c3ccccc3C2(C)C)C(C)(C)c2ccccc21.[O-][Cl+3]([O-])([O-])[O-]` [free DiD, 1,1′-dioctadecyl-3,3,3,′,3′-tetramethylindodicarbocyanine perchlorate], in the series with SKOV-3 tumor xenograft, the tumor fluorescence entry is reported as “very weak tumor fluorescence”.
